Reference: ChEMBL document CHEMBL4725353, “Discovery of Pyrido[2,3-b]indole Derivatives with Gram-Negative Activity Targeting Both DNA Gyrase and Topoisomerase IV” (J Med Chem, 2020)
In brackets after ≈: the same amount, converted by molar mass. Activity calls are given as the source filed them. The rule behind the calls is not given here.

Tests used:
Escherichia coli [1] = experiment: Antibacterial activity against Escherichia coli ATCC 35218 assessed as reduction in microbial growth preincubated for 20 to 24 hrs followed by subculture in absence of compound and measured on day 4 CLSI based broth microdilution susceptibility method; assay type: functional; conditions: time hrs 20-24
Escherichia coli [2] = experiment: Antibacterial activity against Escherichia coli ATCC BAA-2340 assessed as reduction in microbial growth preincubated for 20 to 24 hrs followed by subculture in absence of compound and measured on day 4 CLSI based broth microdilution susceptibility method; assay type: functional; conditions: time hrs 20-24
Klebsiella pneumoniae [3] = experiment: Antibacterial activity against Klebsiella pneumoniae ATCC 10031 assessed as reduction in microbial growth preincubated for 20 to 24 hrs followed by subculture in absence of compound and measured on day 4 CLSI based broth microdilution susceptibility method; assay type: functional; conditions: time hrs 20-24
Klebsiella pneumoniae [4] = experiment: Antibacterial activity against Klebsiella pneumoniae ATCC 700603 assessed as reduction in microbial growth preincubated for 20 to 24 hrs followed by subculture in absence of compound and measured on day 4 CLSI based broth microdilution susceptibility method; assay type: functional; conditions: time hrs 20-24
Klebsiella pneumoniae [5] = experiment: Antibacterial activity against Klebsiella pneumoniae ATCC BAA-2146 assessed as reduction in microbial growth preincubated for 20 to 24 hrs followed by subculture in absence of compound and measured on day 4 CLSI based broth microdilution susceptibility method; assay type: functional; conditions: time hrs 20-24
Acinetobacter baumannii [6] = experiment: Antibacterial activity against Acinetobacter baumannii ATCC 19606 assessed as reduction in microbial growth preincubated for 20 to 24 hrs followed by subculture in absence of compound and measured on day 4 CLSI based broth microdilution susceptibility method; assay type: functional; conditions: time hrs 20-24
Acinetobacter baumannii [7] = experiment: Antibacterial activity against Acinetobacter baumannii ATCC 51432 assessed as reduction in microbial growth preincubated for 20 to 24 hrs followed by subculture in absence of compound and measured on day 4 CLSI based broth microdilution susceptibility method; assay type: functional; conditions: time hrs 20-24
Acinetobacter baumannii [8] = experiment: Antibacterial activity against Acinetobacter baumannii ATCC BAA-747 assessed as reduction in microbial growth preincubated for 20 to 24 hrs followed by subculture in absence of compound and measured on day 4 CLSI based broth microdilution susceptibility method; assay type: functional; conditions: time hrs 20-24
Pseudomonas aeruginosa [9] = experiment: Antibacterial activity against Pseudomonas aeruginosa PAO1 assessed as reduction in microbial growth preincubated for 20 to 24 hrs followed by subculture in absence of compound and measured on day 4 CLSI based broth microdilution susceptibility method; assay type: functional; conditions: time hrs 20-24
Pseudomonas aeruginosa [10] = experiment: Antibacterial activity against Pseudomonas aeruginosa ATCC 27853 assessed as reduction in microbial growth preincubated for 20 to 24 hrs followed by subculture in absence of compound and measured on day 4 CLSI based broth microdilution susceptibility method; assay type: functional; conditions: time hrs 20-24
Pseudomonas aeruginosa [11] = experiment: Antibacterial activity against Pseudomonas aeruginosa ATCC BAA-2113 assessed as reduction in microbial growth preincubated for 20 to 24 hrs followed by subculture in absence of compound and measured on day 4 CLSI based broth microdilution susceptibility method; assay type: functional; conditions: time hrs 20-24
[12] = Intrinsic clearance in mouse hepatocytes by LC/MS-MS analysis; assay type: ADME, cell-based, Hepatocyte
[13] = Protein binding in plasma (unknown origin) assessed as unbound fraction at 1 uM after 5 hrs by LC/MS-MS analysis; assay type: ADME, cell-free
[14] = Cmax/dose in iv dosed CD-1 mouse measured up to 24 hrs by LC-MS/MS analysis; assay type: ADME, organism-based; conditions: in vivo
[15] = AUC/dose in iv dosed CD-1 mouse measured up to 24 hrs by LC-MS/MS analysis; assay type: ADME, organism-based; conditions: in vivo
[16] = Clearance in iv dosed CD-1 mouse measured up to 24 hrs by LC-MS/MS analysis; assay type: ADME, organism-based; conditions: in vivo
[17] = Half life in iv dosed CD-1 mouse measured up to 24 hrs by LC-MS/MS analysis; assay type: ADME, organism-based; conditions: in vivo
[18] = Volume of distribution at steady state in iv dosed CD-1 mouse measured up to 24 hrs by LC-MS/MS analysis; assay type: ADME, organism-based; conditions: in vivo, read-out: Vdss
[19] = Plasma protein binding in iv dosed CD-1 mouse measured up to 24 hrs by LC-MS/MS analysis; assay type: ADME, organism-based; conditions: read-out: PPB (converted)
in vitro = conditions: mouse, liver microsomes
Description: Intrinsic clearance in mouse liver microsomes preincubated for 10 mins followed by NADPH regenerating system addition and measured up to 30 mins by LC/MS-MS analysis

physchem = conditions: PBS, pH 6.5
Description: Solubility of compound in PBS at pH 6.5 incubated for over night by HPLC-UV based lyophilization solubility assay

Escherichia coli [20] = experiment: microbe, parasite or virus in culture; conditions: ATCC 25922
Description: Antibacterial activity against Escherichia coli ATCC 25922 assessed as reduction in microbial growth preincubated for 20 to 24 hrs followed by subculture in absence of compound and measured on day 4 CLSI based broth microdilution susceptibility method

Escherichia coli [21] = experiment: Antibacterial activity against Escherichia coli ATCC 25922 infected in ICR mouse model of neutropenic thigh infection assessed as reduction in microbial growth at 10 to 25 mg/kg, iv and measured after 12 hrs; assay type: functional, organism-based; conditions: dose mg/kg 10-25, time 12.0 hrs
Escherichia coli [22] = experiment: Antibacterial activity against Escherichia coli ATCC 25922 infected in ICR mouse model of neutropenic thigh infection assessed as reduction in microbial growth at 40 to 45 mg/kg, iv bid for 12 hrs; assay type: functional, organism-based
Escherichia coli [23] = experiment: Antibacterial activity against Escherichia coli ATCC 25922 infected in ICR mouse model of neutropenic thigh infection assessed as reduction in colony forming unit at 45 mg/kg, iv bid for 12 hrs; assay type: functional, organism-based
[24] = Ratio of fAUC in Escherichia coli ATCC 25922 infected ICR mouse model of neutropenic thigh infection to MIC for Escherichia coli ATCC […]; assay type: ADME; conditions: 45 mg/kg, 12 h
[25] = fAUC in Escherichia coli ATCC 25922 infected ICR mouse model of neutropenic thigh infection; assay type: ADME; conditions: 45 mg/kg, 12 h

`CCNc1cc(F)cc2c1[nH]c1ncc(-c3cnc(OC)nc3)c(-n3ncc4c3CNC4)c12` gave an MIC (Escherichia coli [1]) of 5.56 µg/mL, an MIC (Escherichia coli [2]) of 2.78 µg/mL and an MIC (Klebsiella pneumoniae [3]) of 0.09 µg/mL. For the same molecule, the MIC (Klebsiella pneumoniae [4]) was 22.2 µg/mL, the MIC (Klebsiella pneumoniae [5]) was 22.2 µg/mL and the MIC (Acinetobacter baumannii [6]) was 5.56 µg/mL. It also gave an MIC (Acinetobacter baumannii [7]) of 5.56 µg/mL, an MIC (Acinetobacter baumannii [8]) of 2.78 µg/mL and an MIC (Pseudomonas aeruginosa [9]) of 10 µg/mL. The MIC (Pseudomonas aeruginosa [10]) was 11.1 µg/mL, the MIC (Pseudomonas aeruginosa [11]) was 11.1 µg/mL and the CLH [12] was 53.9 µg/mL. For the same molecule, the fraction unbound at 5 h, 1 µM [13] was 0.11, the Cmax/dose [14] was 792 kg·ng/mL/mg and the AUC/dose [15] was 327 kg·ng·h/mL/mg. For the same molecule, the clearance [16] was 51 mL/min/kg, the half-life [17] was 0.8 h and the Vd [18] was 1.6 L/kg. The fraction unbound at 24 h [19] was 0.11, the CLint scaled at 0.5 h (in vitro) was 21.8 mL/min/kg and the solubility (physchem) was 350 µg/mL (≈ 787 µM). The MIC (Escherichia coli [20]) was 0.81 µg/mL (≈ 1.82 µM).

In the case of `CCNc1cc(F)cc2c1[nH]c1ncc(-c3cnc(OC)nc3)c(-n3cc(CN)c(C(F)(F)F)n3)c12`, the MIC (Escherichia coli [1]) is reported as 3.13 µg/mL, the MIC (Escherichia coli [2]) is reported as 12.5 µg/mL and the MIC (Klebsiella pneumoniae [3]) is reported as under 0.02 µg/mL. It also gave an MIC (Klebsiella pneumoniae [4]) of 6.26 µg/mL, an MIC (Klebsiella pneumoniae [5]) of 12.5 µg/mL and an MIC (Acinetobacter baumannii [6]) of 0.78 µg/mL. For the same molecule, the MIC (Acinetobacter baumannii [7]) was 0.78 µg/mL, the MIC (Acinetobacter baumannii [8]) was 0.39 µg/mL and the MIC (Pseudomonas aeruginosa [9]) was 1.3 µg/mL. It also gave an MIC (Pseudomonas aeruginosa [10]) of 1.56 µg/mL, an MIC (Pseudomonas aeruginosa [11]) of 1.56 µg/mL and a CLH [12] of 45.3 µg/mL. For the same molecule, the fraction unbound at 5 h, 1 µM [13] was 0.027, the Cmax/dose [14] was 494 kg·ng/mL/mg and the AUC/dose [15] was 341 kg·ng·h/mL/mg. The clearance [16] was 48 mL/min/kg, the half-life [17] was 1.6 h and the Vd [18] was 3.6 L/kg. For the same molecule, the fraction unbound at 24 h [19] was 0.11, the Activity (Escherichia coli [21]) was “Active” and the Activity (Escherichia coli [22]) was “Active”. The Activity (Escherichia coli [23]) was “Active”, the fAUC/MIC [24] was “>= 6” and the fAUC [25] was 30000 ng·h/mL. The CLint scaled at 0.5 h (in vitro) was under 20.2 mL/min/kg, the solubility (physchem) was 15 µg/mL (≈ 30 µM) and the MIC (Escherichia coli [20]) was 0.31 µg/mL (≈ 0.619 µM).
